From US12297193B2, “PTPN2/PTP1B degrader and therapeutic method thereof” (NORTHRIDGE HEALTH GROUP (HONG KONG) CO., LIMITED, priority 2023, dated 2025)
“Also recorded” adds a separate entry of the source. Read-outs that look alike come from different tables or passages of the source.

Legend:
PTPN2 = molecular target: T1, PTPN2 (Homo sapiens, UniProt P17706); assay: Western blot, PTPN2 degradation in HEK293T cells; assay type: cell-based; details: 48 hours incubation; for DC50 / Dmax: Western blot; for DC50: read-out: Relative DC50, PTPN2 degradation; for Dmax: HEK-293T
T1 construct: endogenous in cells; host or cells: HEK293T
T1 sequence (P17706 1-415): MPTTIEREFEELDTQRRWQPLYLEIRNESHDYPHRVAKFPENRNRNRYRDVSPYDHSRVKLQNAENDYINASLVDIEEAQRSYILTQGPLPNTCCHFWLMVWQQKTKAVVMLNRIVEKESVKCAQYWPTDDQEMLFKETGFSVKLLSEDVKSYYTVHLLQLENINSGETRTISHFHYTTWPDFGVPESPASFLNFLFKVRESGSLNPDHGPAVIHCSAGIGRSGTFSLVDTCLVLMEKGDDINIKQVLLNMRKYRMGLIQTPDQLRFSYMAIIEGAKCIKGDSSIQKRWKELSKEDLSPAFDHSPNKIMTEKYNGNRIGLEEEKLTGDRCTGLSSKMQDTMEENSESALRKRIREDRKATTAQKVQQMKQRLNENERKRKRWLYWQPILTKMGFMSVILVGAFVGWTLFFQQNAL
Protocol: (§1) 1. Sample preparation: 150,000 HEK293T cells per well were seeded in a 24-well plate and incubated overnight. Compounds were added to the wells at the final concentrations of 20 μM, 10 μM, 5 μM, 2 μM, 1 μM, 500 nM, 200 nM, 100 nM, 50 nM, 20 nM, 5 nM, 0 nM (solvent control) and medium (negative control) and incubated for 48 hours. After incubation, the supernatants were discarded. Cells were washed with pre-chilled PBS once, 40 μL cell lysis buffer were added to lyse the cells and then centrifuged at 14000 g, 4° C. for 20 mins. The supernatant was aspirated and the protein concentration were quantified. 5× loading buffer was added into the samples, and the samples were heated at 70° C. for 10 minutes.
(§2) 2. Experimental procedure: 20 μg protein were added to each well then start SDS-PAGE electrophoresis. The protein was transferred to the PVDF membrane.
(§3) The blotting current was set at 250 mA for 90 min. 5% BSA in TBST was used to block the membrane for 1 h at room temperature. After diluting the primary antibody according to Table 2, the membrane was hybridized overnight at 4° C. The membrane was washed three times with TBST, 7 minutes each time. After diluting the secondary antibody, the membrane was incubated for 2 h at room temperature. The membrane was washed three times with TBST for 7 min each time.
(§4) ImageJ software was used to detect the gray value of each band and enter it into the following formula as the degradation rate (D): […]
(§5) D is the degradation rate, V refers to the gray value: target refers to the name of the protein targeted for degradation, housekeeping refers to housekeeping proteins such as GAPDH and beta-actin: DMSO refers to the solvent DMSO added only to dissolve PROTAC and incubate cells: Lane X refers to a lane with a specific incubation concentration; Lane Y refers to a lane where only the solvent DMSO is added to incubate cells.
(§6) A graph was drawn with degradation rate as the vertical axis and drug incubation concentration as the horizontal axis, and DC50 and Dmax were read and recorded in Tables 3, 4, 5 and 6.

[1] = tested on: HEK293/Luc (IFN-γ) stable cell line; assay: Luciferase reporter assay in HEK293/Luc (IFN-γ) cells; assay type: cell-based; details: Homo sapiens; stimulated with 30 ng/mL IFN-γ in HEK293/Luc; 6 h incubation; read-out: Absolute EC50
Protocol: HEK293/Luc (IFN-γ) stable cell line (Cat: M00953) and Fire-Lumi luciferase detection kit (Cat: L00877C) were purchased from GenScript. The complete culture medium formulation was DMEM containing 10% FBS and 1% Penicillin-Streptomycin. For EC50 detection, 60 μL HEK293/Luc (IFN-γ) cells were seeded at the density of 10,000 cells/well into 384 well assay plates (761601, NEST) using the medium above mentioned.
The working solutions for each sample were prepared triplicated at 9 gradient doses, starting from 10 µM and diluted by 4 folds. The IFN-γ working solution was prepared at 0.8 ng/mL concentration. The sample working solution and IFN-γ working solution were mixed at the volume of 1:1, and then 20 μl/well of the aliquot was added into the 384-well plate and cells were incubated at 37° C./5% CO2 for 6 h. 40 μL/well prewarmed detection reagents were added into the cells. Luminescent signals could be determined after 5-minute incubation. The data were plotted and four-parameter fitting was performed on the test data to obtain the relative EC50 value of the curve by Prism GraphPad 9 software (Table 1).

PTP1B = molecular target: T2, PTP1B (Homo sapiens, UniProt P18031); assay: Western blot, PTP1B degradation in HEK293T cells; assay type: cell-based; details: 48 hours incubation; for DC50 / Dmax: Western blot; for DC50: read-out: Relative DC50, PTP1B degradation; for Dmax: HEK-293T
T2 construct: endogenous in cells; host or cells: HEK293T
T2 sequence (P18031 1-435): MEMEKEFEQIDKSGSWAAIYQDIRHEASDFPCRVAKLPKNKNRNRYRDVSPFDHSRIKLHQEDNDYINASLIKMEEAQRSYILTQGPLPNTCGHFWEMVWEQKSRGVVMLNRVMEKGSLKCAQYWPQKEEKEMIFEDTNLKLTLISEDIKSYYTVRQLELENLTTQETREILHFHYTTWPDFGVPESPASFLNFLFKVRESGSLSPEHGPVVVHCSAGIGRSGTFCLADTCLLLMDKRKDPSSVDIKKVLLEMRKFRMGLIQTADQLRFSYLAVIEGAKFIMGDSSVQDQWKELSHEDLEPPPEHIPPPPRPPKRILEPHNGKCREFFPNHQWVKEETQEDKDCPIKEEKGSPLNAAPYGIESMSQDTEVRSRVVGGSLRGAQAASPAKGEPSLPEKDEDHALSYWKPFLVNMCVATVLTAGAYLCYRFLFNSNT
Protocol: as §1, §2, §3, §4, §5, §6

[2] = PK study in SD rats after a single intravenous administration; assay type: in vivo; details: for clearance / concentration at 0.083 h / concentration at 0.25 h / concentration at 0.5 h / concentration at 1 h / concentration at 2 h / concentration at 4 h / concentration at 8 h / concentration at 10 h / concentration at 24 h / AUC(0-t): Sprague-Dawley (SD), rat, plasma; for AUC(0-t): read-out: AUC0-24 h
Protocol: A PK study of the compounds after a single intravenous administration.
SD rats were randomly assigned to 5 groups (3 rats/group). Blood samples were collected from animals at 0.083 h, 0.25 h, 0.5 h, 1 h, 2 h, 4 h, 8 h, 10 h and 24 h after administration. Blood samples were collected in an anticoagulant tube containing EDTA-K2. The concentration of compounds in plasma were determined by an LC-MS/MS method with the lower limit of quantitation (LLOQ) of 0.50 ng/mL. Pharmacokinetic parameters were calculated with WinNonlin to assess the PK characteristics in SD rats. The formulation prescription was DMSO: Cremophor EL: 5% Glucose Solution=5:5:90 (v/v/v).

Row | DC50 (PTPN2) [nM] | Dmax (PTPN2) [%] | clearance ([2]; 1 mg/kg) [mL/min/kg] | concentration at 0.083 h ([2]; 1 mg/kg) [ng/mL] | concentration at 0.25 h ([2]; 1 mg/kg) [ng/mL] | concentration at 0.5 h ([2]; 1 mg/kg) [ng/mL] | concentration at 1 h ([2]; 1 mg/kg) [ng/mL] | concentration at 2 h ([2]; 1 mg/kg) [ng/mL] | concentration at 4 h ([2]; 1 mg/kg) [ng/mL] | concentration at 8 h ([2]; 1 mg/kg) [ng/mL] | concentration at 10 h ([2]; 1 mg/kg) [ng/mL] | concentration at 24 h ([2]; 1 mg/kg, 24 h) [ng/mL] | AUC(0-t) ([2]; 1 mg/kg) [ng·h/mL] | Structure (SMILES) | further results
1 | 55.2 | 100 | – | – | – | – | – | – | – | – | – | – | – | CC1(C)CC(Nc2cccc(-c3sc(C(=O)O)c(OC(F)(F)C(=O)O)c3Cl)c2)CCN1S(=O)(=O)Cc1ccc2oc(N3CCC(c4ccc5c6c(cccc46)C(=O)N5C4CCC(=O)NC4=O)CC3)nc2c1 (stereo not shown) [Compound 78] | –
2 | 29.3 | 96.3 | – | – | – | – | – | – | – | – | – | – | – | CC1(C)C[C@@H](Nc2cccc(-c3sc(C(=O)O)c(OCC(=O)O)c3Cl)c2)CCN1S(=O)(=O)Cc1cccc(NC(=O)N2CCC(c3ccc4c5c(cccc35)C(=O)N4[C@H]3CCC(=O)NC3=O)CC2)c1 [Ref. Cpd, reference compound] | EC50 [1]: 473 nM; DC50 (PTP1B): 271 nM; Dmax (PTP1B): 96.8%; Plasma concentration ([2]; 2 mg/kg, 24 h, LLOQ 0.50 ng/mL): BLOQ; clearance ([2]; 2 mg/kg): 4.46 mL/min/kg; concentration at 0.083 h ([2]; 2 mg/kg): 22700 ng/mL; concentration at 0.25 h ([2]; 2 mg/kg): 8300 ng/mL; concentration at 0.5 h ([2]; 2 mg/kg): 1290 ng/mL; concentration at 1 h ([2]; 2 mg/kg): 318 ng/mL; concentration at 2 h ([2]; 2 mg/kg): 148 ng/mL; concentration at 4 h ([2]; 2 mg/kg): 79.4 ng/mL; concentration at 8 h ([2]; 2 mg/kg): 29.3 ng/mL; concentration at 10 h ([2]; 2 mg/kg): 18.9 ng/mL; AUC(0-t) ([2]; 2 mg/kg): 7490 ng·h/mL
3 | – | – | 0.568 | 19400 | 14900 | 11500 | 7920 | 3810 | 1050 | 345 | 279 | 57.5 | 29700 | [2H]C([2H])(c1ccc2oc(N3CCC(c4ccc5c6c(cccc46)C(=O)N5C4CCC(=O)NC4=O)CC3)nc2c1)S(=O)(=O)N1CCC(Nc2cccc(-c3sc(C(=O)O)c(OCC(=O)O)c3Cl)c2)CC1(C)C (stereo not shown) [Compound 151] | –
4 | 51.2 | 97.2 | 0.351 | 21900 | 17000 | 13200 | 8730 | 5430 | 2870 | 1090 | 809 | 206 | 48700 | O=C(O)COc1c(C(=O)O)sc(-c2cccc(NC3CCN(S(=O)(=O)Cc4ccc5oc(N6CCC(c7ccc8c9c(cccc79)C(=O)N8C7CCC(=O)NC7=O)CC6)nc5c4)C4(CC4)C3)c2)c1Cl (stereo not shown) [Compound 57] | –

Continued, compound first:

Row | Structure (SMILES) | DC50 (PTPN2) [nM] | Dmax (PTPN2) [%] | clearance ([2]; 1 mg/kg) [mL/min/kg] | concentration at 0.083 h ([2]; 1 mg/kg) [ng/mL] | concentration at 0.25 h ([2]; 1 mg/kg) [ng/mL] | concentration at 0.5 h ([2]; 1 mg/kg) [ng/mL] | concentration at 1 h ([2]; 1 mg/kg) [ng/mL] | concentration at 2 h ([2]; 1 mg/kg) [ng/mL] | concentration at 4 h ([2]; 1 mg/kg) [ng/mL] | concentration at 8 h ([2]; 1 mg/kg) [ng/mL] | concentration at 10 h ([2]; 1 mg/kg) [ng/mL] | concentration at 24 h ([2]; 1 mg/kg, 24 h) [ng/mL] | AUC(0-t) ([2]; 1 mg/kg) [ng·h/mL] | further results
5 | CC1(C)CC(Nc2cccc(-c3sc(C(=O)O)c(OCC(=O)O)c3Cl)c2)CCN1S(=O)(=O)Cc1ccc2cnc(N3CCC(c4ccc5c6c(cccc46)C(=O)N5C4CCC(=O)NC4=O)CC3)nc2c1 (stereo not shown) [Compound 16] | 38.8 | 96.5 | – | – | – | – | – | – | – | – | – | – | – | –
6 | CC1(C)CC(Nc2cccc(-c3sc(C(=O)O)c(OCC(=O)O)c3Cl)c2)CCN1S(=O)(=O)Cc1ccc2oc(N3CCC(c4ccc5c6c(cccc46)C(=O)N5C4CCC(=O)NC4=O)CC3)nc2c1 (stereo not shown) [Compound 21] | 10.1 | 100 | 0.661 | 18100 | 14600 | 9660 | 5980 | 2890 | 1000 | 372 | 321 | 98.6 | 27200 | Degradation ability on PTPN2 protein at different concentrations (FIG. 1), in words (PTPN2; 5 nM to 20 μM): good degradation ability on PTPN2 protein in a dose-dependent manner; also recorded: completely degraded at high concentrations; EC50 [1]: 48 nM; Effect on PTP1B compared with PTPN2 at the same concentration (selectivity, FIG. 1), in words (PTP1B): the degradation ability of PTPN2 is better than that of PTP1B; also recorded: much weaker than that of PTPN2; DC50 (PTP1B): 861 nM; Dmax (PTP1B): 97.3%
7 | O=C(O)COc1c(C(=O)O)sc(-c2cccc(NC3CCN(S(=O)(=O)Cc4ccc5oc(N6CCC(c7ccc8c9c(cccc79)C(=O)N8C7CCC(=O)NC7=O)CC6)nc5c4)CC3)c2)c1Cl (stereo not shown) [Compound 23] | – | – | 0.684 | 21700 | 17900 | 12600 | 7110 | 2420 | 525 | 110 | 95.1 | 39.6 | 24700 | –
